As a reminder, the IC50 is the concentration that inhibits the measured activity by half.

For the test, the target named is ROCK2 (human) (UniProt O75116). Put plainly: Inhibition of ROCK2 Kinase Activity.
Chain of ROCK2 (human) (O75116 whole entry, looked up): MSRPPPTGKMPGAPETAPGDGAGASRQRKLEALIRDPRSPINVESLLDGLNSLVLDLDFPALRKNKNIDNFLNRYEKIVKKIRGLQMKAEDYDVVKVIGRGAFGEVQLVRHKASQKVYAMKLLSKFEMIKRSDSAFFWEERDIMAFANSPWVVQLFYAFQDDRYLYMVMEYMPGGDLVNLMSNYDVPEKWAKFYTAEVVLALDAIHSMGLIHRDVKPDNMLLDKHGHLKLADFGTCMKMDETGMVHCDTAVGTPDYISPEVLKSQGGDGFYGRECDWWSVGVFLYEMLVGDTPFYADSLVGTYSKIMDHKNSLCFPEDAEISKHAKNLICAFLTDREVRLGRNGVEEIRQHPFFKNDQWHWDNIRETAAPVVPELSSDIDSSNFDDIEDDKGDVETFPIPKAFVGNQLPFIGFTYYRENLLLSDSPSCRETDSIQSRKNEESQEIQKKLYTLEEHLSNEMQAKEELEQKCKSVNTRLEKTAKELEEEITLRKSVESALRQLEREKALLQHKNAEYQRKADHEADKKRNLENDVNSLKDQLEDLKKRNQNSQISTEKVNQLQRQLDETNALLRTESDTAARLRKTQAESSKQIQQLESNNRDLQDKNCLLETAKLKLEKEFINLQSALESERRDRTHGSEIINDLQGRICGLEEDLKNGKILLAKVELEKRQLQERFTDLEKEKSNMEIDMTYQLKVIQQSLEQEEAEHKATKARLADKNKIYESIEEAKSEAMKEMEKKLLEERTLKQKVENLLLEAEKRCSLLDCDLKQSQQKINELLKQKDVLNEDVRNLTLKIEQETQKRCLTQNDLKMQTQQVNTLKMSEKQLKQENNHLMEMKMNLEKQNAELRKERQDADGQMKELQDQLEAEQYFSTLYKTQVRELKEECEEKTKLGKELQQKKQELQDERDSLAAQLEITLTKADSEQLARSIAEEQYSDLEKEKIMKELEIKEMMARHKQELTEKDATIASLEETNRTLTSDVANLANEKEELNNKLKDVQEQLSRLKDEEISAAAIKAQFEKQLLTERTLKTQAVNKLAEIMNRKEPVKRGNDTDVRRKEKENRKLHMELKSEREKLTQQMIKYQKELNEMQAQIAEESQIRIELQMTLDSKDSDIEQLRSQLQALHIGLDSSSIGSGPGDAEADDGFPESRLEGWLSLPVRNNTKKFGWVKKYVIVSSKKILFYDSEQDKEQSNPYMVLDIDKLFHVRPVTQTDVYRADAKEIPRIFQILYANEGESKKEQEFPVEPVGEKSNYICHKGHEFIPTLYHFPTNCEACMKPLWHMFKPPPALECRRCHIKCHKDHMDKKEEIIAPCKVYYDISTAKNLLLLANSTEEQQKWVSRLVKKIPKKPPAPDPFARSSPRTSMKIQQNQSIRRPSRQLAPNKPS
`CC(=O)c1ccccc1C(=O)NCc1nc(-c2c[nH]c3ncccc23)n[nH]1` yielded an IC50 above 5 µM. To `Cc1ccccc1OCC(=O)NCc1nc(-c2ccncc2)n[nH]1` belongs above 5 µM; to `COc1ccc(O)c(C(=O)NCc2nc(-c3c[nH]c4ncccc34)n[nH]2)c1`, above 5 µM. In turn, `CC1=NN(c2ccc(C(=O)NCc3nc(-c4ccncc4)n[nH]3)cc2)C(=O)C1` had a half-inhibitory concentration (IC50) above 5 µM. To `COc1ccc(Br)c(C(=O)NCc2nc(-c3ccncc3)n[nH]2)c1` belongs above 5 µM; to `Cc1c(Cl)ccc(S(=O)(=O)NCc2nc(-c3ccncc3)n[nH]2)c1O`, above 5 µM; to `COc1cccc(OC)c1C(=O)NCc1nc(-c2ccncc2)n[nH]1`, above 5 µM. To `O=C(NCc1nc(-c2c[nH]c3ncccc23)n[nH]1)c1ccc(-c2ccc(O)cc2)cc1` belongs above 5 µM; to `O=C(NCc1nc(-c2ccncc2)n[nH]1)c1cc(O)ccc1O`, at most 5 µM; to `COc1ccc(OC)c(C(=O)NCc2nc(-c3ccncc3)n[nH]2)c1`, above 5 µM.

In turn, `O=C(NCc1nc(-c2c[nH]c3ncccc23)n[nH]1)c1cc(Cl)ccc1O` came in with an IC50 above 5 µM.

For the molecule `O=C(NCc1nc(-c2c[nH]c3ncccc23)n[nH]1)c1cccc(O)c1O`, the IC50 was above 5 µM.

Molecule `O=C(NCc1nc(-c2ccncc2)c[nH]1)c1cccs1` yielded a half-maximal inhibitory concentration (IC50) of at most 5 µM. To `O=S(=O)(NCc1nc(-c2ccncc2)n[nH]1)c1ccc(OCc2ccccc2)cc1` belongs above 5 µM; to `O=C(NCc1nc(-c2c[nH]c3ncccc23)n[nH]1)c1cc([N+](=O)[O-])ccc1F`, above 5 µM; to `O=C(NCc1nc(-c2c[nH]c3ncccc23)n[nH]1)c1cc(F)c(F)c(O)c1F`, above 5 µM.

In turn, `O=C(NCc1nc(-c2ccncc2)n[nH]1)c1cc(F)ccc1[N+](=O)[O-]` returned an IC50 above 5 µM. For the molecule `CC(C)(C)OC(=O)NC(Cc1ccc(O)cc1)C(=O)NCc1nc(-c2c[nH]c3ncccc23)n[nH]1` (centres undefined), the IC50 is above 5 µM. On to `O=C(CCc1ccccc1O)NCc1nc(-c2c[nH]c3ncccc23)n[nH]1`, for which the concentration for half-maximal inhibition (IC50) was above 5 µM.

In the case of `O=C(NCc1nc(-c2ccncc2)n[nH]1)c1cc([N+](=O)[O-])ccc1Cl`, the IC50 was above 5 µM.

`O=C(NCc1nc(-c2c[nH]c3ncccc23)n[nH]1)C(O)CCl` (centres undefined): the IC50 is above 5 µM.

In turn, `O=Cc1ccc(C(=O)NCc2nc(-c3ccncc3)n[nH]2)cc1` came in with an IC50 above 5 µM. To `O=C(CC1Cc2ccccc2C1)NCc1nc(-c2c[nH]c3ncccc23)n[nH]1` belongs above 5 µM. To `CC(NC(=O)OC(C)(C)C)C(=O)NCc1nc(-c2c[nH]c3ncccc23)n[nH]1` (centres undefined) belongs above 5 µM.

(Values after the Kinase Knowledgebase extract (Sharma et al. 2016).)
